In the test the target is MLL4 (Homo sapiens, UniProt Q9UMN6).

The structures appear in SMILES notation.

Sequence of MLL4 (Q9UMN6 2490-2715): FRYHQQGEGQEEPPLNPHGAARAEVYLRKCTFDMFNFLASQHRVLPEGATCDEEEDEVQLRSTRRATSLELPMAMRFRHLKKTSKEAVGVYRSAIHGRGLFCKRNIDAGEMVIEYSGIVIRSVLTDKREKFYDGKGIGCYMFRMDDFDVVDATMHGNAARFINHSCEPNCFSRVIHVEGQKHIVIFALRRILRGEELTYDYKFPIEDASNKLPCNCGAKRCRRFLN
Sequence of MLL4 (Q9UBL3 whole entry, further chain): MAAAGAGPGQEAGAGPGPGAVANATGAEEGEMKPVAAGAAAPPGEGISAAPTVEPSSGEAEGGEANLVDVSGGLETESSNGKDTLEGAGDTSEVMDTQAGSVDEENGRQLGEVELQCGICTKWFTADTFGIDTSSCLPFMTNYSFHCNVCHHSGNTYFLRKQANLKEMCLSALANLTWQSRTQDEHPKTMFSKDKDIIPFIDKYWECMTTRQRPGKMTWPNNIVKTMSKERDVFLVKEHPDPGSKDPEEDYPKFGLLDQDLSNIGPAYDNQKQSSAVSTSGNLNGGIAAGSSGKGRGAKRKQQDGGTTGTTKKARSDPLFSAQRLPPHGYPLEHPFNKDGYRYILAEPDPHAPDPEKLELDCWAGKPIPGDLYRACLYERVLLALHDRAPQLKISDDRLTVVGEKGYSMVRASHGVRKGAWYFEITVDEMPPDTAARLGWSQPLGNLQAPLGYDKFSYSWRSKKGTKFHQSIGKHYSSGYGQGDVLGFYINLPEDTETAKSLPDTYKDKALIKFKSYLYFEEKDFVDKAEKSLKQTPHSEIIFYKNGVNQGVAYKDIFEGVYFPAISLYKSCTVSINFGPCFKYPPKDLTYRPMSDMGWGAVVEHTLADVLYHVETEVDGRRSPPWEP
Sequence of MLL4 (Q9C005 whole entry, further chain): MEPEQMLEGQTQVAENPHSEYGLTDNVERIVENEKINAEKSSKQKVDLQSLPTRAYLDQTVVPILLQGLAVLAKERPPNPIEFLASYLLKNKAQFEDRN
Sequence of MLL4 (Q15291 whole entry, further chain): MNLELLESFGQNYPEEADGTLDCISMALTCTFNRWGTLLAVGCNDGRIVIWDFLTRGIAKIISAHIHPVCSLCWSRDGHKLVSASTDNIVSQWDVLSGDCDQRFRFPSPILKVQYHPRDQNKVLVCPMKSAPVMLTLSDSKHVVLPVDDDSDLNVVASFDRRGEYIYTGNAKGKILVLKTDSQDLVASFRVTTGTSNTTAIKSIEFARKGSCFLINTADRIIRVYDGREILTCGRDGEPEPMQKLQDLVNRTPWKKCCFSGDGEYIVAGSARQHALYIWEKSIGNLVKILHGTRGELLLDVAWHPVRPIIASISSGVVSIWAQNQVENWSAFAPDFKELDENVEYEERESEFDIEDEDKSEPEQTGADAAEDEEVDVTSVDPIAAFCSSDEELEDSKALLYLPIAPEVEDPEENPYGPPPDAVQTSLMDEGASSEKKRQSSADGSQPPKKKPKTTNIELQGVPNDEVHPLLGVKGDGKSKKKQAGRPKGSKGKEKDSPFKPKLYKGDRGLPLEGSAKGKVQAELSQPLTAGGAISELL

`Nc1ncnc2c1ncn2[C@@H]1O[C@H](CSCC[C@H](N)C(=O)O)[C@@H](O)[C@H]1O` [SAH, S-(5'-Adenosyl)-L-homocysteine, reference compound] came in with an IC50 of 1130 nM.

(Values after paper PMC9837035 (Nature Communications, 2023).)
